# Measurements as given in US20250032651A1, “[177LU] LUTETIUM-PSMA I&T COMPOSITION AND DOSIMETRY, KIT, METHOD OF MAKING, AND METHOD OF USING THEREOF” (Curium US LLC, priority 2022, published 2025).
# Test: Biodistribution: SPECT/CT time-activity curves (fraction of injected activity), whole-body half-lives
# Assay type: in vivo, human
# Conditions: Cycle 1
# Method: This Example presents the biodistribution, dosimetry, and pharmacokinetics (PK) results of a PK/Dosimetry sub-study performed as part of a Phase III trial. Twenty-seven (27) patients were administered a target activity of 7.4±10% GBq of ^177Lu-PSMA-I&T and underwent single photon emission computed tomography (SPECT)/computed tomography (CT) imaging at four timepoints (4 h, 24 h, 48 h, and 168 h). Image data was analysed to compute time-activity curves (TACs) and subsequently time-integrated activity coefficients (TIACs) in each organ of interest and in organs showing appreciable and meaningful ^177Lu-PSMA-I&T activity. Organ Level Internal Dose Assessment (OLINDA 2.2.3) was used to compute organ and whole body absorbed radiation doses for each patient.
# All participating sites underwent a rigorous site setup process during which all dose calibrators, scanners, and gamma counters used in the sub-study were calibrated. Sites were allowed to enroll patients in the sub-study only after the completion and approval of all site setup processes by Invicro. Patients underwent SPECT/CT imaging, with anatomical coverage typically extending from the salivary glands to the pelvis, following the administration of a targeted 7.4±10% GBq of ^177Lu-PSMA-I&T at cycle 1. SPECT/CT imaging was performed at four timepoints: 4 h, 24 h, 48 h, and 168 h post-injection. Additionally, a subset of patients imaged at Cycle 1 (16 out of 27), were also imaged at Cycle 3 (Table 2).
# Volume of interest (VOI) (kidneys, bladder, liver, lumbar vertebrae L2-L4, lacrimal glands, salivary glands [parotid and submandibular glands], and whole body) were delineated on each dataset by a trained image analyst. […] Organs were segmented either by drawing the entire contour of the organ, or by placing a sphere in a representative region of the organ and then multiplying by the organ's effective mass (based on patient's height and weight). Segmentation methods for each organ are specified in Table 3 and were consistently applied to each patient.
# Clearance of the radiopharmaceutical was derived from a data-appropriate fit of each organ's TAC. Depending on the TAC's shape, the data was fitted with the sum of one, two, or three exponentials, or using a rise and fall model. Fitting was performed with in-house Python software. TIACs were calculated through analytical integration of the curve fit extrapolated to infinity. […] A whole-body TAC was derived from delineating the imaged body. The remainder activity was determined by subtracting the cumulative organ TIACs from the whole body TIAC.
# Note: the time-activity curves in these figures are not decay-corrected to time of injection.
# The whole-body time-activity curves were fitted with bi-exponential equation and the two components were used for the distribution and elimination half-life.
# [1] = bi-exponential fit of whole-body time-activity curves, excluding patient 42-030
smiles,measurement,setting,value
"O=C([O-])CC[C@H](NC(=O)N[C@@H](CCCCNC(=O)CCCCCCC(=O)NCCCC[C@@H](NC(=O)[C@@H](Cc1ccccc1)NC(=O)[C@@H](Cc1ccc(O)c(I)c1)NC(=O)CC[C@H](C(=O)[O-])N1CCN(CC(=O)[O-])CCN(CC(=O)[O-])CCN(CC(=O)[O-])CC1)C(=O)[O-])C(=O)[O-])C(=O)[O-].[177Lu+3].[H+].[H+].[H+].[H+].[H+] [^177Lu-PSMA I&T, (3S,7S,26R,29R,32R,37R)-29-benzyl-32-(4-hydroxy-3-iodobenzyl)-5,13,20,28,31,34-hexaoxo-37-(4,7,10-tris(carboxymethyl)-1,4,7,10-tetraazacyclododecan-1-yl)-4,6,12,21,27,30,33-heptaazaheptatriacontane-1,3,7,26,37-pentacarboxylic acid; lutetium-177 (III)]",whole body mean activity retention at 4 h,averaged across patients excluding 42-030,44%±13%
same,whole-body distribution half-life (mean),[1],2.16 ± 1.30 h
same,whole-body elimination half-life (mean),[1],46.29 ± 23.83 h
same,"whole body activity retention at 4 h, max",excluding 42-030,78%
same,"whole body activity retention at 4 h, min",excluding 42-030,24%
same,route of excretion,visible accumulation in the urinary bladder,primarily excreted through the urine
